Data: ChEMBL document CHEMBL3994583, “Discovery of 4-[(5-arylidene-4-oxothiazolidin-3-yl)methyl]benzoic acid derivatives active as novel potent allosteric inhibitors of protein tyrosine phosphatase 1B: In silico studies and in vitro evaluation as insulinomimetic and anti-inflammatory agents” (Eur J Med Chem, 2017)
Calls of active or inactive are those of the source. No cut-off for these calls is given here.

Columns and labels:
[1] = system: C2C12; experiment: Cytotoxicity against mouse C2C12 cells assessed as reduction in cell viability after 24 hrs by MTT assay; assay type: cell-based; settings: c2c12, 24 h
[2] = system: NCTC-2544; experiment: Anti-inflammatory activity in IFN-gamma and histamine-stimulated human NCTC-2544 cells assessed as reduction in COX-2 protein expression by Western blot method; assay type: functional, cell-based
[3] = biological target: T1, Tyrosine-protein phosphatase non-receptor type 1 (Homo sapiens) (UniProt P18031); experiment: Inhibition of PTP1B in human HepG2 cells assessed as increase in phosphorylation of IRbeta at Tyr1162/1163 residues at 50 uM after 30 mins by Western blot method; assay type: cell-based
T1 sequence (whole entry): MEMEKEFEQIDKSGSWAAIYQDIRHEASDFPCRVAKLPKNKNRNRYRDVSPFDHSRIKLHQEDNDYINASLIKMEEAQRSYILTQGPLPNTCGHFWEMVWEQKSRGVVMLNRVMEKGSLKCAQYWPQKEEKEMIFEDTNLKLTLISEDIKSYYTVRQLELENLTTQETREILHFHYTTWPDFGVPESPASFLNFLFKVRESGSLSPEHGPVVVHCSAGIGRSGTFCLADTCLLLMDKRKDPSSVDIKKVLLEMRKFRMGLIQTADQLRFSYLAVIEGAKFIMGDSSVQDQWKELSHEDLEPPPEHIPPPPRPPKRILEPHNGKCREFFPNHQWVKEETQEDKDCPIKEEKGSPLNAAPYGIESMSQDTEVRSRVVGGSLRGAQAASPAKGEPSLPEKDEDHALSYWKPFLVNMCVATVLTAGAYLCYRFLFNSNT

[4] = system: NCTC-2544; experiment: Anti-inflammatory activity in IFN-gamma and histamine-stimulated human NCTC-2544 cells assessed as reduction in iNOS protein expression by Western blot method; assay type: functional, cell-based
[5] = system: NCTC-2544; experiment: Cytotoxicity against human IFN-gamma and histamine-stimulated NCTC-2544 cells assessed as reduction in cell viability at 10 uM by MTT assay; assay type: cell-based; settings: nctc-2544, 10 µM
[6] = biological target: T1, Tyrosine-protein phosphatase non-receptor type 1 (Homo sapiens); experiment: Reversible inhibition of full length recombinant human PTP1B assessed as recovery of enzyme activity up to 50 uM using pNPP as substrate preincubated for 1 hr followed by substrate addition by spectrophotometric method; design: scale not given: the % may be the effect or the level left
[7] = biological target: T1, Tyrosine-protein phosphatase non-receptor type 1 (Homo sapiens); experiment: Competitive inhibition of full length recombinant human PTP1B assessed as enzyme-inhibitor complex up to 8 uM using pNPP as substrate by double reciprocal plot method
[8] = system: NCTC-2544; experiment: Cytotoxicity against human NCTC-2544 cells assessed as reduction in cell viability at 10 uM by MTT assay; assay type: cell-based; settings: nctc-2544, 10 µM
[9] = system: HepG2; experiment: Cytotoxicity against human HepG2 cells assessed as reduction in cell viability at 25 uM after 24 hrs by MTT assay; assay type: cell-based; settings: hepg2, 24 h
[10] = biological target: T2, Tyrosine-protein phosphatase non-receptor type 1 (Homo sapiens, UniProt P18031); experiment: Inhibition of full length recombinant human PTP1B using pNPP as substrate by spectrophotometric method
T2 sequence (P18031 whole entry): T1 sequence (whole entry)

[11] = biological target: T1, Tyrosine-protein phosphatase non-receptor type 1 (Homo sapiens); experiment: Irreversible inhibition of full length recombinant human PTP1B assessed as recovery of enzyme activity up to 50 uM using pNPP as substrate preincubated for 1 hr followed by substrate addition by spectrophotometric method; design: scale not given: the % may be the effect or the level left
[12] = biological target: T3, Tyrosine-protein phosphatase non-receptor type 1 (Mus musculus) (UniProt P35821); experiment: Inhibition of PTP1B in mouse C2C12 cells assessed as increase in phosphorylation of IRbeta at Tyr1162/1163 residues at 50 uM after 30 mins by Western blot method; assay type: cell-based
T3 sequence (whole entry): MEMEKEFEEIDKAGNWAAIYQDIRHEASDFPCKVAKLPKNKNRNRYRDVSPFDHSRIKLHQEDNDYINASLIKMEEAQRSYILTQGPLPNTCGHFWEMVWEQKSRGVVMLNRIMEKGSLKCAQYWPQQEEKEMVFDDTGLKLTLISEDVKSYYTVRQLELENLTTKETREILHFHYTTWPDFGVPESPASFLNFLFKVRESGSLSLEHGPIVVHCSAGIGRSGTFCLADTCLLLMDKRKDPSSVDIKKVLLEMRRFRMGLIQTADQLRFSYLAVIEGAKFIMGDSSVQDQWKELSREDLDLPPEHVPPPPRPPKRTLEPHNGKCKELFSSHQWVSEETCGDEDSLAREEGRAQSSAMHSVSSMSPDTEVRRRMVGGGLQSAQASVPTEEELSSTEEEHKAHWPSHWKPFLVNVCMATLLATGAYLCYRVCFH

[13] = biological target: T2, Tyrosine-protein phosphatase non-receptor type 1; experiment: Mixed non-competitive inhibition of full length recombinant human PTP1B assessed as enzyme-substrate-inhibitor complex using pNPP as substrate by double reciprocal plot method
[14] = biological target: T3, Tyrosine-protein phosphatase non-receptor type 1 (Mus musculus); experiment: Inhibition of PTP1B in mouse C2C12 cells assessed as increase in phosphorylation of Akt at Ser473 residue at 50 uM after 30 mins by Western blot method; assay type: cell-based
[15] = system: NCTC-2544; experiment: Anti-inflammatory activity in IFN-gamma and histamine-stimulated human NCTC-2544 cells assessed as reduction in ICAM-1 protein expression by Western blot method; assay type: functional, cell-based
[16] = biological target: T1, Tyrosine-protein phosphatase non-receptor type 1 (Homo sapiens); experiment: Mixed-type inhibition of full length recombinant human PTP1B assessed as enzyme-substrate-inhibitor complex at 3 to 7.5 uM using pNPP as substrate by double reciprocal plot method
[17] = biological target: T1, Tyrosine-protein phosphatase non-receptor type 1 (Homo sapiens); experiment: Competitive inhibition of full length recombinant human PTP1B assessed as enzyme-inhibitor complex up to 6 uM using pNPP as substrate by double reciprocal plot method
[18] = biological target: T1, Tyrosine-protein phosphatase non-receptor type 1 (Homo sapiens); experiment: Inhibition of PTP1B in human HepG2 cells assessed as increase in phosphorylation of Akt at Ser473 residue at 50 uM after 30 mins by Western blot method; assay type: cell-based
[19] = biological target: T2, Tyrosine-protein phosphatase non-receptor type 1; experiment: Competitive inhibition of full length recombinant human PTP1B assessed as enzyme-inhibitor complex using pNPP as substrate by double reciprocal plot method
[20] = biological target: T1, Tyrosine-protein phosphatase non-receptor type 1 (Homo sapiens); experiment: Mixed-type inhibition of full length recombinant human PTP1B assessed as enzyme-substrate-inhibitor complex at 3 to 9 uM using pNPP as substrate by double reciprocal plot method
[21] = biological target: T1, Tyrosine-protein phosphatase non-receptor type 1 (Homo sapiens); experiment: Inhibition of PTP1B in human HepG2 cells assessed as increase in phosphorylation of IRbeta at Tyr1162/1163 residues at 50 uM after 180 mins by Western blot method; assay type: cell-based
[22] = biological target: T1, Tyrosine-protein phosphatase non-receptor type 1 (Homo sapiens); experiment: Inhibition of PTP1B in human HepG2 cells assessed as increase in phosphorylation of IRbeta at Tyr1162/1163 residues at 50 uM by Western blot method; assay type: cell-based; settings: TDE = time-dependent effect

Row | SMILES | Activity [1] | Activity [2] | inhibition [3] | Activity [4] | Activity [5] | Activity [6] [%] | Activity [8] | Activity [9] | IC50 [10] [µM] | Activity [11] [%] | inhibition [12] | inhibition [14] | Activity [15] | further results
1 | O=C(O)c1ccc(CN2C(=O)/C(=C/c3ccc(OCCc4ccccc4)cc3)SC2=S)cc1 | Non-Toxic | Active | inactive | Active | Toxic | 75 to 100 | Toxic | Non-Toxic | 3.5 | – | – | – | – | inhibition [7]: Active
2 | O=C(O)c1ccc(CN2C(=O)/C(=C/c3ccc(OCCc4ccccc4)cc3)S/C2=N\c2ccc(F)cc2)cc1 | Non-Toxic | – | – | – | – | – | Toxic | Non-Toxic | 1.5 | 10 to 50 | Active | inactive | – | Ki [13]: 1 µM
3 | O=C(O)c1ccc(CN2C(=O)/C(=C/c3ccc(OCc4ccccc4)cc3)SC2=S)cc1 | Non-Toxic | Active | inactive | Active | Non-Toxic | 75 to 100 | Non-Toxic | Non-Toxic | 5 | – | – | – | Active | inhibition [16]: Active
4 | O=C(O)c1ccc(CN2C(=O)/C(=C/c3cccc(OCc4ccccc4)c3)SC2=S)cc1 | Non-Toxic | Active | inactive | Active | Non-Toxic | 75 to 100 | Non-Toxic | Non-Toxic | 5.7 | – | – | – | Active | inhibition [7]: Active
5 | O=C(O)c1ccc(CN2C(=O)/C(=C/c3cccc(OCCc4ccccc4)c3)SC2=S)cc1 | Non-Toxic | Active | inactive | Active | Toxic | 75 to 100 | Toxic | Non-Toxic | 1.9 | – | – | – | Active | inhibition [17]: Active
6 | O=C(O)c1ccc(CN2C(=O)/C(=C/c3cccc(OCCc4ccccc4)c3)S/C2=N\c2ccc(F)cc2)cc1 | Non-Toxic | – | – | – | – | – | Toxic | Non-Toxic | 14.5 | 10 to 50 | Active | inactive | – | Ki [13]: 2.3 µM
7 | O=C(O)c1ccc(CN2C(=O)/C(=C/c3cccc(OCc4ccccc4)c3)S/C2=N\c2ccc(F)cc2)cc1 | Non-Toxic | – | Active | – | – | – | Toxic | Non-Toxic | 4.2 | 10 to 50 | Active | inactive | – | inhibition [18]: Active; Ki [13]: 1.5 µM
8 | O=C(O)c1ccc(CN2C(=O)/C(=C/c3ccc(OCc4ccccc4)cc3)S/C2=N\c2ccc(F)cc2)cc1 | Non-Toxic | – | Active | – | – | 75 to 100 | Toxic | Non-Toxic | 1.9 | – | Active | inactive | – | Ki [19]: 1.4 µM; inhibition [18]: Active
9 | O=C(O)c1ccc(CN2C(=O)/C(=C/c3ccc(Oc4ccccc4)cc3)SC2=S)cc1 | Non-Toxic | inactive | inactive | Active | Non-Toxic | 75 to 100 | Non-Toxic | Non-Toxic | 10.6 | – | – | – | Active | inhibition [20]: Active
10 | O=C(O)c1ccc(CN2C(=O)/C(=C/c3cccc(Oc4ccccc4)c3)SC2=S)cc1 | Non-Toxic | Active | inactive | Active | Non-Toxic | 75 to 100 | Non-Toxic | Non-Toxic | 7.1 | – | – | – | Active | inhibition [20]: Active
11 | O=C(O)c1ccc(CN2C(=O)/C(=C/c3ccc(Oc4ccccc4)cc3)S/C2=N\c2ccc(F)cc2)cc1 | Non-Toxic | – | – | – | – | – | Toxic | Non-Toxic | 5.1 | 10 to 50 | Active | Active | – | inhibition [21]: inactive; Ki [19]: 9.9 µM; inhibition [18]: Active; inhibition [22]: Tde
